# Tested on: cardiomyocytes from human iPS cell lines 409B2
# Experiment: Experimental Example 4: membrane potential analysis (FluoVolt), beats per minute
# Format: cell-based
# Details: treated from 25th day, measured on 28th day; n = 3; DMSO control 70.7
# Method: For analysis of electrophysiological function of cardiomyocytes, humans iPS cell lines 409B2 (prepared from episomal vector (pCXLE-hOCT3/4-shp53-F, pCXLE-hSK, pCXLE-hUL) using HDF1388 purchased from Cell Applications, Inc (reference literature; Okita et al., Nat Methods. 8(5):409-12. (2011))) were used.
# The maintenance culture of the above-mentioned iPS cell lines was carried out by a conventional method (Takahashi K, et al. Cell. 131: 861-72, 2007 and Nakagawa M, et al. Nat Biotechnol. 26: 101-6, 2008).
# For differentiation induction into cardiomyocytes, the iPS cell lines were treated with CTK solution (ReproCELL) for 2 minutes, the solution was removed, and then the iPS cell lines were treated with Accumax (Innovative Cell Technologies) for 5 minutes, and the cells were dissociated into the single cell by pipetting. The cells were collected by centrifugation (1,000 rpm, 5 min), and seeded on low attachment 96 well dish (Corning) by 5000 cells/70 μL/well, and cultured in a medium prepared by adding 1% L-glutamine, transferrin 150 μg/mL, ascorbic acid 50 μg/mL (Sigma), monothioglycerol 4×10^−4 M, 10 μM Rock inhibitor (Y-27632), 2 ng/mL BMP4 (R&D) and 0.5% Matrigel (Growth Factor Reduced) to StemPro-34 SFM (ThermoFisher) at 37° C., under 5% oxygen condition to form embryoid bodies (0 day). […]
smiles,measurement,value
"O=C1c2ccc(N3CCOCC3)cc2CN1c1ccc2[nH]c(-c3ccc(Br)cc3)nc2c1 [Example 8, 2-(2-(4-bromophenyl)-1H-benzimidazol-5-yl)-5-(morpholin-4-yl)isoindolin-1-one]",beats (mean),32.0 beats per minute

# Source: patent US11401264B2, “Heterocyclic compound” (Orizuru Therapeutics, Inc., priority 2018, dated 2022)
